# Reference: ChEMBL document CHEMBL6103573, “Discovery of novel thienopyridine indole derivatives as inhibitors of tubulin polymerization targeting the colchicine-binding site with potent anticancer activities” (Eur J Med Chem, 2025)
# Calls of active or inactive are those of the source. The rule behind the calls is not given here.
# Tests used:
# [1] = test system: MGC-803; assay: Induction of apoptosis in human MGC-803 cells assessed as cell rupture at 0.25 to 2.0 nmol/L incubated for 48 hrs by bright field microscopic analysis; assay type: functional, cell-based; conditions: dose 0.25-2 nmol/L
# [2] = test system: MGC-803; assay: Induction of apoptosis in human MGC-803 cells assessed as late apoptotic cells at 0.5 nmol/L incubated for 48 hrs by Annexin V-FITC/propidium iodide staining based flow cytometry analysis (reference value: 2.22 %); assay type: functional
# [3] = test system: MGC-803; assay: Induction of cell cycle arrest in human MGC-803 cells assessed as accumulation of cells at G2/M phase at 2 nmol/L incubated for 24 hrs by RNase A/propidium iodide staining based flow cytometric analysis relative to control; assay type: functional
# [4] = test system: NCI-N87; assay: Antiproliferative activity against human NCI-N87 cells assessed as inhibition of cell proliferation incubated for 48 hrs by MTT assay; assay type: functional, cell-based; conditions: NCI-N87, 48 h
# [5] = test system: HGC-27; assay: Antiproliferative activity against human HGC-27 cells assessed as inhibition of cell proliferation incubated for 48 hrs by MTT assay; assay type: functional, cell-based; conditions: HGC-27, 48 h
# [6] = test system: MGC-803; assay: Induction of apoptosis in human MGC-803 cells assessed as early apoptotic cells at 1.0 nmol/L incubated for 48 hrs by Annexin V-FITC/propidium iodide staining based flow cytometry analysis (reference value: 0.83 %); assay type: functional
# [7] = test system: HGC-27; assay: Induction of apoptosis in human HGC-27 cells assessed as increase in cleaved Caspase-7 expression at 0.25 to 2.0 nmol/L incubated for 48 hrs by Western blotting analysis; assay type: functional, cell-based; conditions: dose 0.25-2 nmol/L
# [8] = test system: MGC-803; assay: Anti-migratory activity against human MGC-803 cells assessed as decrease in cell migration at 1 nmol/L measured after 24 hrs by wound healing assay relative to control; assay type: functional; design: scale not given: the % may be the effect or the level left
# [9] = biological target: T1, Tubulin beta (Homo sapiens) (UniProt P68371+Q9H4B7+Q13509+P04350+Q3ZCM7+P07437+Q13885+Q9BVA1+Q9BUF5+A6NNZ2); assay: Competitive binding affinity to beta-tubulin colchicine binding site in human MGC-803 cells assessed as reduction in EBI-beat tubulin adduct to beta-tubulin ratio preincubated for 2 hrs followed by EBI addition and measured after 2 hrs by Western blotting analysis; assay type: cell-based; conditions: dose 0.1-1 µmol/L, time 4.0 hrs
# [10] = biological target: Tubulin; assay: Inhibition of tubulin (unknown origin) polymerization assessed as decrease in fluorescence intensity in presence of GTP by fluorescence microplate reader; assay type: protein-complex assay, Homo sapiens
# [11] = test system: MGC-803; assay: Antiproliferative activity against human MGC-803 cells assessed as inhibition of cell proliferation incubated for 48 hrs by MTT assay; assay type: functional, cell-based; conditions: MGC-803, 48 h
# [12] = test system: MGC-803; assay: Induction of cell cycle arrest at G2 phase in human MGC-803 cells assessed as downregulation of Cyclin B1 level at 0.25 to 2.0 nmol/L measured after 48 hrs by Western blot analysis; assay type: functional, cell-based; conditions: dose 0.25-2 nmol/L
# [13] = test system: HUVEC; assay: Anti-vascular activity in HUVEC cells assessed as reduction in length of tubular network incubated for 5 hrs by Matrigel based inverted microscopic analysis; assay type: functional, cell-based; conditions: Homo sapiens, dose 0.5-2 nmol/L
# [14] = test system: MGC-803; assay: Induction of apoptosis in human MGC-803 cells assessed as appearance of round cells at 0.25 to 2.0 nmol/L incubated for 48 hrs by bright field microscopic analysis; assay type: functional, cell-based; conditions: dose 0.25-2 nmol/L
# [15] = test system: MGC-803; assay: Antitumor activity against human MGC-803 cells xenografted in female BALB/c-nu nude mouse assessed as increase in apoptotic cells at 5 mg/kg, po administrated every other day for 11 times and measured after 21 days by TUNEL staining based assay; assay type: functional, organism-based; conditions: time 21.0 day
# [16] = biological target: T2, Tubulin (Homo sapiens) (UniProt P68371+Q9H4B7+P0DPH7+P68366+Q13509+Q71U36+P04350+Q3ZCM7+P07437+P68363+Q9BQE3+Q6PEY2+Q13885+Q9BVA1+Q9BUF5); assay: Disruption of microtubule network in human HGC-27 cells assessed as irregular cellular morphology at 0.25 to 2.0 nmol/L incubated for 24 hrs by DAPI staining based fluorescence microscopic analysis; assay type: cell-based; conditions: dose 0.25-2 nmol/L
# [17] = test system: HGC-27; assay: Induction of apoptosis in human HGC-27 cells assessed as early apoptotic cells at 1.5 nmol/L incubated for 48 hrs by Annexin V-FITC/propidium iodide staining based flow cytometry analysis (reference value: 2.04 %); assay type: functional
# [18] = test system: MGC-803; assay: Induction of apoptosis in human MGC-803 cells assessed as increase in total apoptotic rate at 2 nmol/L incubated for 48 hrs by Annexin V-FITC/propidium iodide staining based flow cytometry analysis relative to control; assay type: functional
# [19] = test system: HGC-27; assay: Induction of apoptosis in human HGC-27 cells assessed as total apoptotic rate at 2 nmol/L incubated for 48 hrs by Annexin V-FITC/propidium iodide staining based flow cytometry analysis relative to control; assay type: functional
# [20] = test system: HGC-27; assay: Antiproliferative activity against human HGC-27 cells assessed as cell viability at 0.5 to 2 nmol/L incubated for 48 hrs by MTT assay (reference value: 86 %); assay type: functional; conditions: dose 0.5-2 nmol/L, at 0.5 to 2 nM
# [21] = Toxicity in female BALB/c-nu nude mouse xenografted with human MGC-803 cells assessed as body weight loss at 5 mg/kg, po administrated every other day for 11 times and measured after 21 days; assay type: organism-based; conditions: in vivo, 504 h, time 21 day
# [22] = biological target: T1, Tubulin beta (Homo sapiens); assay: Competitive binding affinity to beta-tubulin colchicine binding site in human MGC-803 cells assessed as inhibition of EBI-beta-tubulin adduct band formation by measuring reduction in adduct band intensity preincubated for 2 hrs followed by EBI addition and measured after 2 hrs by Western blotting analysis; assay type: cell-based; conditions: dose 0.1-1 µmol/L, time 4.0 hrs
# [23] = biological target: T1, Tubulin beta (Homo sapiens); assay: Competitive binding affinity to beta-tubulin colchicine binding site in human HGC-27 cells assessed as reduction in EBI-beat tubulin adduct to beta-tubulin ratio preincubated for 2 hrs followed by EBI addition and measured after 2 hrs by Western blotting analysis; assay type: cell-based; conditions: dose 0.1-1 µmol/L, time 4.0 hrs
# [24] = biological target: T2, Tubulin (Homo sapiens); assay: Disruption of microtubule network in human MGC-803 cells assessed as appearance of multinucleation at 0.25 to 2.0 nmol/L incubated for 24 hrs by DAPI staining based fluorescence microscopic analysis; assay type: cell-based; conditions: dose 0.25-2 nmol/L
# [25] = test system: HGC-27; assay: Antiproliferative activity against human HGC-27 cells assessed as reduction in cell viability incubated for 48 hrs by MTT assay; assay type: functional, cell-based; conditions: dose 0.25-10 nmol/L
# [26] = test system: MGC-803; assay: Induction of cell cycle arrest in human MGC-803 cells assessed as downregulation of Cdc2 phosphorylation at Tyr15 residue measured after 48 hrs by Western blot analysis; assay type: functional, cell-based; conditions: dose 0.25-2 nmol/L
# [27] = test system: HGC-27; assay: Inhibition of colony formation in human HGC-27 cells at 0.5 nmol/L incubated for 7 days by crystal violet staining based colony formation assay relative to control; assay type: functional; conditions: HGC-27, 168 h, time 7 day
# [28] = biological target: T1, Tubulin beta (Homo sapiens); assay: Competitive binding affinity to beta-tubulin colchicine binding site in human MGC-803 cells assessed as inhibition of EBI-beta-tubulin adduct band formation at 1 umol/L preincubated for 2 hrs followed by EBI addition and measured after 2 hrs by Western blotting analysis; assay type: cell-based; conditions: dose 1.0 µmol/L, time 4.0 hrs
# [29] = test system: MGC-803; assay: Inhibition of colony formation in human MGC-803 cells incubated for 7 days by crystal violet staining based colony formation assay; assay type: functional, cell-based; conditions: dose 0.1-0.5 nmol/L, time 7.0 day
# [30] = test system: HUVEC; assay: Anti-angiogenesis activity in HUVEC cells assessed as effect on cell vitality at <= 1 nmol/L measured within 24 hrs; assay type: functional, cell-based; conditions: Homo sapiens
# [31] = Toxicity in female BALB/c-nu nude mouse xenografted with human MGC-803 cells assessed as change in spleen morphology at 5 mg/kg, po administrated every other day for 11 times and measured after 21 days by hematoxylin and eosin staining based analysis; assay type: organism-based; conditions: in vivo, 504 h, time 21 day
smiles,measurement,setting,value
CN(c1ccc2c(ccn2C)c1)c1nc(N2CCCC2)nc2sccc12,Activity,[1],Active
same,Activity,[2],2.84%
same,Activity,[3],28.5%
same,IC50,[4],2.14 nM
same,IC50,[5],1.82 nM
same,Activity,[6],16.83%
same,Activity,[7],Active
same,Activity,[8],24%
same,Activity,[9],Dose-dependent-effect
same,IC50,[10],2510 nM
same,IC50,[11],1.61 nM
same,Activity,[12],Active
same,Activity,[13],Dose-dependent-effect
same,Activity,[14],Active
same,Activity,[15],Active
same,Activity,[16],Active
same,Activity,[17],15.58%
same,Activity,[18],60%
same,Activity,[19],20%
same,Activity,[20],38%
same,Activity,[21],Non-toxic
same,Activity,[22],Dose-dependent-effect
same,Activity,[23],Dose-dependent-effect
same,Activity,[24],Active
same,Activity,[25],Dose-dependent-effect
same,Activity,[26],Dose-dependent-effect
same,inhibition at 0.0005 µM,[27],> 90%
same,Activity,[28],Active; Stronger Affinity Observed
same,inhibition,[29],Dose-dependent-effect
same,Activity,[30],Active; Minimal Impact Observed
same,Activity,[31],Non-toxic
